# Source: publication PMC11277489, “Novel Piperazine Derivatives of Vindoline as Anticancer Agents” (International Journal of Molecular Sciences, 2024)
# Read-outs that look alike come from different tables or passages of the source.
# Key:
# Type in all cases: cell-based
# [1] = system: HOP-62; assay: NCI60 five-dose screen, Non-small Cell Lung Cancer; conditions: Homo sapiens; HOP-62, Non-small Cell Lung Cancer; five-dose screen; read-out: GI50
# [2] = system: EKVX; assay: NCI60 five-dose screen, Non-small Cell Lung Cancer; conditions: Homo sapiens, Non-small Cell Lung Cancer, five-dose screen, read-out: GI50
# [3] = system: UACC-62; assay: NCI60 five-dose screen, Melanoma; conditions: Homo sapiens; UACC-62, Melanoma; five-dose screen; read-out: GI50
# [4] = system: NCI-H226; assay: NCI60 five-dose screen, Non-small Cell Lung Cancer; conditions: Homo sapiens; NCI-H226, Non-small Cell Lung Cancer; five-dose screen; read-out: GI50
# [5] = system: SF-539; assay: NCI60 five-dose screen, CNS Cancer; conditions: Homo sapiens; SF-539, CNS Cancer; five-dose screen; read-out: GI50
# [6] = system: HOP-92; assay: NCI60 five-dose screen, Non-small Cell Lung Cancer; conditions: Homo sapiens; HOP-92, Non-small Cell Lung Cancer; five-dose screen; read-out: GI50
# [7] = system: LOX IMVI; assay: NCI60 five-dose screen, Melanoma; conditions: Homo sapiens, Melanoma, five-dose screen, read-out: GI50
# [8] = system: MDA-MB-435; assay: NCI60 five-dose screen, Melanoma; conditions: Homo sapiens; MDA-MB-435, Melanoma; five-dose screen; read-out: GI50
# [9] = system: HL-60(TB); assay: NCI60 five-dose screen, Leukemia; conditions: Homo sapiens; HL-60(TB), Leukemia; five-dose screen; read-out: GI50
# [10] = system: CAKI-1; assay: NCI60 five-dose screen, Renal Cancer; conditions: Homo sapiens; CAKI-1, Renal Cancer; five-dose screen; read-out: GI50
# [11] = system: MDA-MB-468; assay: NCI60 five-dose screen, Breast Cancer; conditions: Homo sapiens; MDA-MB-468, Breast Cancer; five-dose screen; read-out: GI50
# [12] = system: SF-295; assay: NCI60 five-dose screen, CNS Cancer; conditions: Homo sapiens; SF-295, CNS Cancer; five-dose screen; read-out: GI50
# [13] = system: T-47D; assay: NCI60 five-dose screen, Breast Cancer; conditions: Homo sapiens, T47D; T-47D, Breast Cancer; five-dose screen; read-out: GI50
# [14] = system: SF-268; assay: NCI60 five-dose screen, CNS Cancer; conditions: Homo sapiens; SF-268, CNS Cancer; five-dose screen; read-out: GI50
# [15] = system: M14; assay: NCI60 five-dose screen, Melanoma; conditions: Homo sapiens; M14, Melanoma; five-dose screen; read-out: GI50
# [16] = system: K-562; assay: NCI60 five-dose screen, Leukemia; conditions: Homo sapiens, K562; K-562, Leukemia; five-dose screen; read-out: GI50
# [17] = system: RPMI-8226; assay: NCI60 five-dose screen, Leukemia; conditions: Homo sapiens; RPMI-8226, Leukemia; five-dose screen; read-out: GI50
# [18] = system: COLO 205; assay: NCI60 five-dose screen, Colon Cancer; conditions: Homo sapiens; COLO 205, Colon Cancer; five-dose screen; read-out: GI50
# [19] = system: SK-MEL-5; assay: NCI60 five-dose screen, Melanoma; conditions: Homo sapiens; SK-MEL-5, Melanoma; five-dose screen; read-out: GI50
# [20] = system: DU-145; assay: NCI60 five-dose screen, Prostate Cancer; conditions: Homo sapiens; DU-145, Prostate Cancer; five-dose screen; read-out: GI50
# [21] = system: U251; assay: NCI60 five-dose screen, CNS Cancer; conditions: Homo sapiens, U-251; U251, CNS Cancer; five-dose screen; read-out: GI50
# [22] = system: HT29; assay: NCI60 five-dose screen, Colon Cancer; conditions: Homo sapiens, HT-29; HT29, Colon Cancer; five-dose screen; read-out: GI50
# [23] = system: HCT-116; assay: NCI60 five-dose screen, Colon Cancer; conditions: Homo sapiens; HCT-116, Colon Cancer; five-dose screen; read-out: GI50
# [24] = system: SK-OV-3; assay: NCI60 five-dose screen, Ovarian Cancer; conditions: Homo sapiens; SK-OV-3, Ovarian Cancer; five-dose screen; read-out: GI50
# [25] = system: NCI-H23; assay: NCI60 five-dose screen, Non-small Cell Lung Cancer; conditions: Homo sapiens; NCI-H23, Non-small Cell Lung Cancer; five-dose screen; read-out: GI50
# [26] = system: BT-549; assay: NCI60 five-dose screen, Breast Cancer; conditions: Homo sapiens; BT-549, Breast Cancer; five-dose screen; read-out: GI50
# [27] = system: SK-MEL-2; assay: NCI60 five-dose screen, Melanoma; conditions: Homo sapiens; SK-MEL-2, Melanoma; five-dose screen; read-out: GI50
# [28] = system: 60 human tumor cell lines (NCI60); assay: NCI60 five-dose screen, whole panel and sub-panel means; conditions: read-out: GI50 Mean
# [29] = system: HCT-15; assay: NCI60 five-dose screen, Colon Cancer; conditions: Homo sapiens; HCT-15, Colon Cancer; five-dose screen; read-out: GI50
# [30] = system: SNB-19; assay: NCI60 five-dose screen, CNS Cancer; conditions: Homo sapiens; SNB-19, CNS Cancer; five-dose screen; read-out: GI50
# [31] = system: OVCAR-8; assay: NCI60 five-dose screen, Ovarian Cancer; conditions: Homo sapiens; OVCAR-8, Ovarian Cancer; five-dose screen; read-out: GI50
# [32] = system: A498; assay: NCI60 five-dose screen, Renal Cancer; conditions: Homo sapiens; A498, Renal Cancer; five-dose screen; read-out: GI50
# [33] = system: RXF 393; assay: NCI60 five-dose screen, Renal Cancer; conditions: Homo sapiens, RXF 393, Renal Cancer
# [34] = system: SK-MEL-28; assay: NCI60 five-dose screen, Melanoma; conditions: Homo sapiens; SK-MEL-28, Melanoma; five-dose screen; read-out: GI50
# [35] = Homo sapiens, 60 cell, mean over all 60 cell lines
# [36] = Homo sapiens, mean over Breast Cancer panel
# [37] = Homo sapiens, mean over CNS Cancer panel
# [38] = Homo sapiens, mean over Colon Cancer panel
# [39] = Homo sapiens, mean over Leukemia panel
# [40] = Homo sapiens, mean over Melanoma panel
# [41] = Homo sapiens, mean over Non-small Cell Lung Cancer panel
# [42] = Homo sapiens, mean over Ovarian Cancer panel
# [43] = Homo sapiens, mean over Prostate Cancer panel
# [44] = Homo sapiens, mean over Renal Cancer panel
structure (smiles),measurement,setting,value
CC[C@]12C=CCN3CC[C@@]4(c5ccc(OC)cc5N(C)[C@H]4[C@@](O)(C(=O)OC)[C@@H]1OC(=O)CCC(=O)N1CCN(c4ccc(C(F)(F)F)cc4)CC1)[C@@H]32 [Compound 28],GI50,[1],5500 nM
same,GI50,[2],3630 nM
same,GI50,[3],2880 nM
same,GI50,[4],3160 nM
same,GI50,[5],5250 nM
same,GI50,[6],2090 nM
same,GI50,[7],3240 nM
same,GI50,[8],3890 nM
same,GI50,[9],1450 nM
same,GI50,[10],2000 nM
same,GI50,[11],1860 nM
same,GI50,[12],3160 nM
same,GI50,[13],3550 nM
same,GI50,[14],4070 nM
same,GI50,[15],2400 nM
same,GI50,[16],1700 nM
same,GI50,[17],2570 nM
same,GI50,[18],1910 nM
same,GI50,[19],3240 nM
same,GI50,[20],5250 nM
same,GI50,[21],3310 nM
same,GI50,[22],2570 nM
same,GI50,[23],3310 nM
same,GI50,[24],3890 nM
same,GI50,[25],4370 nM
same,GI50,[26],3310 nM
same,GI50,[27],2750 nM
same,GI50,[28]; [35],< 4000 nM
same,GI50,[28]; [36],3440 nM
same,GI50,[28]; [37],3690 nM
same,GI50,[28]; [38],3160 nM
same,GI50,[28]; [39],1810 nM
same,GI50,[28]; [40],3630 nM
same,GI50,[28]; [41],4230 nM
same,GI50,[28]; [42],3920 nM
same,GI50,[28]; [43],3850 nM
same,GI50,[28]; [44],3670 nM
same,GI50,[28]; mean over all 60 cell lines,3550 nM
same,GI50,[29],3160 nM
same,GI50,[30],4370 nM
same,GI50,[31],3720 nM
same,GI50,[32],5750 nM
same,GI50,[33],2290 nM
same,GI50,[34],5010 nM
CC[C@]12C=CCN3CC[C@@]4(c5ccc(OC)cc5N(C)[C@H]4[C@@](O)(C(=O)OC)[C@@H]1OC(=O)CCCN1CCN(c4ccc(C(F)(F)F)cc4)CC1)[C@@H]32 [Compound 22],GI50,[1],3020 nM
same,GI50,[2],3090 nM
same,GI50,[3],3310 nM
same,GI50,[4],2880 nM
same,GI50,[5],1780 nM
same,GI50,[6],1950 nM
same,GI50,[7],1700 nM
same,GI50,[8],1700 nM
same,GI50,[9],1660 nM
same,GI50,[10],2240 nM
same,GI50,[11],1380 nM
same,GI50,[12],1950 nM
same,GI50,[13],3020 nM
same,GI50,[14],3630 nM
same,GI50,[15],1860 nM
same,GI50,[16],1410 nM
same,GI50,[17],2040 nM
same,GI50,[18],1780 nM
same,GI50,[19],1700 nM
same,GI50,[20],2880 nM
same,GI50,[21],2240 nM
same,GI50,[22],1740 nM
same,GI50,[23],1910 nM
same,GI50,[24],3720 nM
same,GI50,[25],4570 nM
same,GI50,[26],3020 nM
same,GI50,[27],2190 nM
same,GI50,[28]; [35],< 4000 nM
same,GI50,[28]; [36],2510 nM
same,GI50,[28]; [37],2470 nM
same,GI50,[28]; [38],2020 nM
same,GI50,[28]; [39],1770 nM
same,GI50,[28]; [40],1980 nM
same,GI50,[28]; [41],2880 nM
same,GI50,[28]; [42],3050 nM
same,GI50,[28]; [43],2670 nM
same,GI50,[28]; [44],2590 nM
same,GI50,[28]; mean over all 60 cell lines,2440 nM
same,GI50,[29],1820 nM
same,GI50,[30],3550 nM
same,GI50,[31],3020 nM
same,GI50,[32],3720 nM
same,GI50,[33],1550 nM
same,GI50,[34],1950 nM
